The text below walks through data of US20210113540A1, “TREATMENT AGENT AND PHARMACEUTICAL COMPOSITION FOR GLIOMA” (NATIONAL UNIVERSITY CORPORATION HOKKAIDO UNIVERSITY, priority 2018, published 2021).

The test system of assay [1] is Glioma-initiating cell E6R. The assay can be described thus: Cell growth test (MTT) on GICR strain E6R. Format: cell-based. Particulars: Homo sapiens, 72 h. The protocol: GICR strain: Cell growth test was performed using E6R (Stem Cells. 2016 August; 34(8):2016-25.).
(§1) Cell culture solutions were obtained by mixing a medium prepared by adding various compounds, bFGF (Peprotech, 100-18B) and EGF (Peprotech, 100-15) to DMEM/Ham's F-12 medium (SIGMA, D8062) and a medium prepared by adding FCS (Hyclone, SH30910.03) to DMEM medium (Nacalai tesque, 08458-45) to a concentration of 10% for use.
(§2) Each compound adjusted to a predetermined concentration was dispensed into a 96-well plate (Falcon, 353072) at 80 μL/well, and E6 cells and E6R cells were seeded on the 96-well plate at 1000 cells/80 μL/well. After 3 days, 10 μL of an MTT reagent (DOJINDO, 341-01823) was added, the cells were incubated at 37° C. for 3 hours, the culture solution was removed, and 100 μL of DMSO was added. The absorbance at 570 nm was measured using Bio-Rad iMark (Bio-Rad, 168-1130JA). The growth inhibition rate at each test compound concentration was calculated by the following formula using the absorbance as an index of the viable cell count.
(§3) The growth inhibition rate at each compound concentration was determined, and the 50% growth inhibition concentration GI50 (μmol/L)] was calculated using XLfit. Growth inhibition rate (%)=(Amount of luminescence from wells supplemented with test compound)/(Amount of luminescence from wells supplemented with DMSO)×100
(§4) GIC and GICR strain: Cell growth test was performed using E6, E6R, E16, and E16R (Stem Cells. 2016 August; 34(8): 2016-25.).

The test system of assay [2] is GIC strains (E6 cell, E16 cell). Description: Immunostaining of differentiated and undifferentiated markers in GIC strains. The assay is classed as cell-based, human. The settings on record: Compound 8 10 μM, E6 and E16 cells, FIG. 1.
The subject of assay [3] is SOX2 in GICs (E16). The assay can be described thus: SOX2 immunostaining, SOX2/DAPI positive rate in GICs (E16). The assay is classed as cell-based, human. How it is done:
(§5) The extranuclear elimination of compound 8-dependent SOX2 is dependent on the extranuclear transport factor, Exportin (also known as CRM1). The cells were cultured for one day in the presence of Compound 8 (10 μM) and a CRM1-specific inhibitor leptomycin B (LMB, 150 nM), and GICs were immunostained with the SOX2 antibody. As a result, the SOX2/DAPI positive rate in GICs (E6) was as follows: Control: 95±2%, supplemented with Compound 8: 7±3%, supplemented with Compound 8+LMB: 87±9%; the SOX2/DAPI positive rate in GICs (E16) was as follows: Control: 72±11%, supplemented with compound 8: 0.5±1%, supplemented with Compound 8+LMB: 81±10%. The addition of LMB suppressed Compound 8-dependent extranuclear elimination of SOX2.
(§6) When UDP-GlcNAc was added after the chemical was added to GIC, reduced SOX2 expression in GICs and the cytotoxic activity of Compound 8 on GICs were neutralized (FIGS. 3 and 4). SOX2 K75A in which lysine 75 involved in the binding of CRM1 and SOX2 was substituted with alanine and SOX2 S248A in which the 0-GlcNAcylation target serine 248 was substituted with alanine were prepared, thereby establishing GICs that constitutively express these SOX2 mutants and wild-type SOX2 (SOX2 wt). After treatment with Compound 8, the localization of SOX2 was examined by immunostaining using an anti-FLAG antibody, and the viability of GICs expressing these mutants was examined by MTT assay (FIG. 5). In the presence of Compound 8, SOX2 K75A was present in the nucleus and partially neutralized the cytotoxic activity of Compound 8. SOX2 S248A was not retained in the nucleus by treatment with Compound 8, and no inhibitory effect on cytotoxic activity was observed. […] The SOX2/DAPI positive rate was as follows: GIC (E6): Control: 0%, SOX2 wt: 36±5%, SOX2 K75A: 63±5%, SOX2 S248A: 18±2%; GIC (E16): Control: 0%, SOX2 wt: 22±4%, SOX2 K75A: 58±6%, SOX2 S248A: 15±3%. Error bar: ±SD. Statistical processing is t-test. *P<0.05, **P<0.01, ***P<0.001. GIC was cultured for 2 days with Compound 8 (10 μmol/L) alone or together with UDP-GlcNAc (1 mmol/L), and immunostaining was performed for SOX2 and NESTIN. As a result, the addition of UDP-GlcNAc suppressed Compound 8-dependent extranuclear elimination of SOX2.
(§7) OSMI-1, which is an O-GlcNAc transferase (OGT)-specific inhibitor, suppresses GIC growth and SOX2 expression. (A) GICs were cultured for 3 days in the presence of various concentrations of OSMI-1, and cell growth was examined using MTT assay (FIG. 6). (B) The results of immunostaining for SOX2 and NESTIN using GICs cultured for 2 days in the presence of 20 μmol/L OSMI-1 and calculating the SOX2 positive rate (SOX2/DAPI) are shown below.

In assay [4] the test system is SOX2 in GICs (E6). Description: SOX2 immunostaining, SOX2/DAPI positive rate in GICs (E6). The assay is classed as cell-based, human. The protocol:
as §5, §6, §7

Assay [5] relates to Glioma-initiating cell E16. The assay can be described thus: Cell proliferation test (MTT) on GIC strain E16. Particulars: Homo sapiens, 72 h, MTT after 3 days. The assay is classed as cell-based. The protocol: as §4, §1, §2, §3
For assay [6], the system named is Glioma-initiating cell E16R. Description: Cell proliferation test (MTT) on GICR strain E16R. The assay is classed as cell-based. Particulars: Homo sapiens, 72 h, MTT after 3 days. How it is done:
as §4, §1, §2, §3

Assay [7] concerns Glioma-initiating cell E6. Description: Cell proliferation test (MTT) on GIC strain E6. Format: cell-based. Particulars: Homo sapiens, 72 h, MTT after 3 days. The protocol:
as §4, §1, §2, §3

Setting [8] is: after treatment with Compound 8, anti-FLAG immunostaining.

Where two headings read alike, the source gives them in different places. A value given as a limit tells only on which side of the number the result lay.

Take `O=C(O)c1cc(C2CC2)cnc1Nc1ccc2c(ccn2-c2ccccc2)c1` [Compound 8, 5-cyclopropyl-2-((1-phenyl-1H-indole-5-yl)amino)nicotinic acid]: the GI50 in assay [1] (MTT after 3 days, read-out: ER6 GI50) is 11.8 nM; in assay [1] (class of ER6 GI50, MTT after 3 days, read-out: Evaluation), less than 1000 nM; in assay [5] (read-out: GI50 (nmol/L) of Glioma-initiating cell E16), 434 nmol/L; in assay [5] (read-out: GI50 class of Glioma-initiating cell E16), less than 1000 nmol/L; in assay [6] (read-out: GI50 (nmol/L) of Glioma-initiating cell E16R) it was 490 nmol/L; in assay [6] (read-out: GI50 class of Glioma-initiating cell E16R) it was less than 1000 nmol/L. The GI50 in assay [7] (read-out: GI50 (nmol/L) of Glioma-initiating cell E6) was less than 7 nmol/L; in assay [7] (read-out: GI50 class of Glioma-initiating cell E6) it was less than 1000 nmol/L. Besides, the “expression of differentiation markers (βIII tubulin, GFAP, GC)” value in assay [2] is reported as “increased”. Moreover, the “positive rate of neural stem cell markers SOX2 and NESTIN” value in assay [2] is on record as “remarkable decrease”. For the same compound, in assay [3] (Compound 8 10 μM, LMB 150 nM where added, cultured one day, control 72±11%), the “SOX2/DAPI positive rate in GICs (E16)” value is 0.5±1%. In assay [3] (setting [8]), the “SOX2/DAPI positive rate, GIC (E16) expressing SOX2 K75A” value is listed as 58±6%. Also, the “SOX2/DAPI positive rate, GIC (E16) expressing SOX2 S248A” value in assay [3] (setting [8]) was found to be 15±3%. Further, the “SOX2/DAPI positive rate, GIC (E16) expressing SOX2 wt” value in assay [3] (setting [8]) is recorded as 22±4%. For the same compound, the “SOX2/DAPI positive rate in GICs (E6)” value in assay [4] (Compound 8 10 μM, LMB 150 nM where added, cultured one day, control 95±2%) turned out to be 7±3%. Besides, the “SOX2/DAPI positive rate, GIC (E6) expressing SOX2 K75A” value in assay [4] (setting [8]) was determined as 63±5%. Besides, the “SOX2/DAPI positive rate, GIC (E6) expressing SOX2 S248A” value in assay [4] (setting [8]) came to 18±2%. Further, in assay [4] (setting [8]), the “SOX2/DAPI positive rate, GIC (E6) expressing SOX2 wt” value is listed as 36±5%.
